From patent publication US9481885B2, “Methods and compositions related to miR-21 and miR-29a, exosome inhibition, and cancer metastasis” (Ohio State Innovation Foundation, priority 2011, dated 2016)

Molecular target: T1, human TLR7 (Homo sapiens, UniProt Q9NYK1)
T1 construct: host or cells: HEK-Blue TLR7 293 (TLR7-HEK-293)
T1 sequence (Q9NYK1 27-1049): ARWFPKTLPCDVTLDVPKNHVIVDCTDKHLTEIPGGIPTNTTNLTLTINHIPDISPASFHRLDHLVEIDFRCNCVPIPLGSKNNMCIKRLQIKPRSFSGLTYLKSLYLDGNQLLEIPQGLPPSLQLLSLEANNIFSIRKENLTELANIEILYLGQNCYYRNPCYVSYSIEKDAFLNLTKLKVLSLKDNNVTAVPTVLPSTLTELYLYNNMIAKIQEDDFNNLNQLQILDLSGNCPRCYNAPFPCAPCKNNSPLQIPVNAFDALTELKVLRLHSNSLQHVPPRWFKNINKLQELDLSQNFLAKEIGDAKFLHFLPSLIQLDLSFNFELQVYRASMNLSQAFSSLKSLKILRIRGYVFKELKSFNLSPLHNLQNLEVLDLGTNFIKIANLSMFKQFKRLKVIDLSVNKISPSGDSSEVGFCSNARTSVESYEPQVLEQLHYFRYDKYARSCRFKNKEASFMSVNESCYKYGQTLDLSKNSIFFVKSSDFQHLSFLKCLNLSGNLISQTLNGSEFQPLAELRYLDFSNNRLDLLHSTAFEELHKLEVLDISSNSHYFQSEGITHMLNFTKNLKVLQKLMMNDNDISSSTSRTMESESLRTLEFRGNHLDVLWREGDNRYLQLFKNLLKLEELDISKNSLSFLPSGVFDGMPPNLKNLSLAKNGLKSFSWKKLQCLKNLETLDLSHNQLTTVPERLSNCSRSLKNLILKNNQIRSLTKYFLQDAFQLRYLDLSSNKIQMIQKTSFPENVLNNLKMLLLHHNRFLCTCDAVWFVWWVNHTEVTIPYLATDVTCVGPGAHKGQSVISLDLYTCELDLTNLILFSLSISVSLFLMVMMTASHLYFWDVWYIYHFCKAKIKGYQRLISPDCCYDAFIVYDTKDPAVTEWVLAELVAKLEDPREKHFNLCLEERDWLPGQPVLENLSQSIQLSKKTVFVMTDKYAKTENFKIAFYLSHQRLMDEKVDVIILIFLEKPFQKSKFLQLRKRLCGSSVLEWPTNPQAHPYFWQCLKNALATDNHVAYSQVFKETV
Test: NF-κB reporter assay (QUANTI-Blue) in TLR7-HEK-293 cells
Format: cell-based
Details: Dotap formulations of miRNA
Experimental: To investigate whether miRNA-induced activation of TLRs also occurs in human cells, an NF-κB reporter assay was performed in HEK-293 cells. NF-κB, a transcription factor modulating the expression of several cytokine genes, is activated by several TLRs, including the only ssRNA-binding human TLRs, TLR7 and TLR8. Therefore, we treated HEK-293 cells expressing human TLR7 or TLR8 (hereafter, TLR7- and TLR8-HEK-293 cells, respectively) with Dotap alone or with Dotap formulations of miR-16, -21, -29a, or -147 and performed an NF-κB reporter assay. As positive controls Gardiquimod and ssRNA40 were used, specific agonists of TLR7 and TLR8, respectively. […] To confirm this conclusion, transfected were TLR8-HEK-293 cells with a plasmid encoding a dominant negative form of TLR8 (TLR8DN) and treated these cells with the miRNAs of interest. In TLR8DN cells, the activation of NF-κB by miR-21 and miR-29a was abolished (FIG. 3F). […] NF-κB activity was assessed by QUANTI-Blue Assay (Invivogen). […] Levels of SEAP can be easily determined with QUANTI-Blue, a detection medium that turns purple/blue in the presence of alkaline phosphatase. […] The plate was then incubated at 37° C. for 1-3 h and SEAP levels were determined by reading the plate with a spectrophotometer at 620-655 nm (SpectraMax, Molecular Devices).

In the case of “miR-147: synthetic mature miRNA (SEQ ID NO: 3), sequence similar to RNA33, Dotap formulation (GUGUGUGGAAAUGCUUCUGC; DOTAP formulation, further chemistry not given here)”, the NF-κB activation is reported as “only in TLR8-HEK-293 cells”.
